Laboratory results: US20160160189A1, “Truncated Constructs of RIPK3 and Related Uses” (ST. JUDE CHILDREN'S RESEARCH HOSPITAL, priority 2013, published 2016)

Tested on: NIH-3T3 cells stably expressing DD-RIPK3
Test: Cell death of DD-RIPK3 cells, IncuCyte bioimager
Type: cell-based, murine
Details: 1 μM Shield drug
Source text: Chimeric proteins composed of RIPK3 fused to the destabilization domain (DD)(31a) were created via recombinant PCR, to produce a fragment composed of an N-terminal FLAG tag followed by the destabilization domain, then full-length murine RIPK3 or RIPK3^K51A. These constructs were cloned into the pRRL lentiviral vector downstream of an MND promoter, and upstream of a T2A-GFP-T2A-Puromycin resistance cassette. Thus, cells transduced with these vectors produce FLAG-DD-RIPK3, GFP, and the puromycin resistance marker as separate proteins from a single mRNA, and both DD-RIPK3 and GFP carry a C terminal 2A epitope. These constructs were expressed in NIH-3T3 cells via standard helper12 dependent lentiviral transduction, and resulting cells were selected in 2 μg/ml puromycin. […]
Resulting images were analyzed using the software package supplied with the IncuCyte imager, which allows precise analysis of the number of Sytox Green or Yoyo-3 positive cells present in each image. For each experiment, a minimum of three separate wells were treated with each experimental condition, and a minimum of 4 image fields were assessed per well. Percent cell death was calculated by treating a minimum of three distinct wells in each experiment with 100 nM of the cell permeable fluorescent dye Syto Green (S7559), which allows quantification of the total number of cells present in each field. […]

## CN1C(=O)C(Cc2c[nH]c3ccccc23)NC1=S (centres unmarked) [necrostatin-1, Necrostatin-1]
30 μM Nec1, RIPK1 siRNA
  effect of Nec1 on cell death after RIPK1 siRNA-mediated knockdown: eliminated
No exogenous TNF, TNFR-Fc 200 ng/ml, Nec1 30 μM
  effect on cell death triggered by RIPK3 accumulation: decreased cell death
